Source: US10385012B2, “Thioamides and amides for controlling animal pests” (BASF SE, priority 2013, dated 2019)

How the values were obtained:
Assay type in all cases: in vivo
[1] = tested on: Silverleaf whitefly (Bemisia argentifolii); assay: Silverleaf whitefly test on sprayed cotton plants; conditions: 72 h, whitefly adults on cotton, 3 days after treatment, in comparison with untreated controls
Protocol: The active compounds were formulated in cyclohexanone as a 10,000 ppm solution supplied in 1.3 ml ABgene® tubes. These tubes were inserted into an automated electrostatic sprayer equipped with an atomizing nozzle and they served as stock solutions for which lower dilutions were made in 50% acetone:50% water (v/v). A nonionic surfactant (Kinetic®) was included in the solution at a volume of 0.01% (v/v). Cotton plants at the cotyledon stage (one plant per pot) were sprayed by an automated electrostatic plant sprayer equipped with an atomizing spray nozzle. The plants were dried in the sprayer fume hood and then removed from the sprayer. Each pot was placed into a plastic cup and 10 to 12 whitefly adults (approximately 3-5 days old) were introduced. The insects were collected using an aspirator and 0.6 cm, nontoxic Tygon® tubing (R-3603) connected to a barrier pipette tip. The tip, containing the collected insects, was then gently inserted into the soil containing the treated plant, allowing insects to crawl out of the tip to reach the foliage for feeding. Cups were covered with a reusable screened lid (150-micron mesh polyester screen PeCap from Tetko, Inc.). […] Mortality was assessed 3 days after treatment, compared to untreated control plants.

[2] = tested on: boll weevil (Anthonomus grandis); assay: Boll weevil control, 24-well microtiter plates with insect diet and eggs; conditions: 120 h, egg and larval mortality after 5 days, in comparison with untreated controls
Protocol: (§1) For evaluating control of boll weevil (Anthonomus grandis) the test unit consisted of 24-well-microtiter plates containing an insect diet and 20-30 A. grandis eggs. The compounds were formulated using a solution containing 75% v/v water and 25% v/v DMSO. Different concentrations of formulated compounds were sprayed onto the insect diet at 20 μl, using a custom built micro atomizer, at two replications. After application, microtiter plates were incubated at about 23±1° C. and about 50±5% relative humidity for 5 days. Egg and larval mortality was then visually assessed.

[3] = tested on: Green soldier stink bug (Nezara viridula); assay: Green soldier stink bug test on sprayed soybean pods; conditions: 120 h, 3rd instar N. viridula on soybean pods, after 5 days, in comparison with untreated controls
Protocol: The active compound is dissolved at the desired concentration in a mixture of 1:1 (vol:vol) distilled water:aceteone. Surfactant (Kinetic HV) is added at a rate of 0.01% (vol/vol). The test solution is prepared at the day of use. Soybean pods were placed in microwavable plastic cups lined with moist filter paper and inoculated with ten 3rd instar N. viridula. Using a hand atomizer, an approximately 2 ml solution is sprayed into each cup. Treated cups were kept at about 28-29° C. and relative humidity of about 50-60%. Percent mortality was recorded after 5 days.

[4] = tested on: Southern armyworm (Spodoptera eridania); assay: Southern armyworm test on sprayed lima bean plants; conditions: 500 ppm; armyworm larvae on lima bean, 4 days after treatment; in comparison with untreated controls
Protocol: The active compounds were formulated in cyclohexanone as a 10,000 ppm solution supplied in 1.3 ml ABgene® tubes. These tubes were inserted into an automated electrostatic sprayer equipped with an atomizing nozzle and they served as stock solutions for which lower dilutions were made in 50% acetone:50% water (v/v). A nonionic surfactant (Kinetic®) was included in the solution at a volume of 0.01% (v/v). Lima bean plants (variety Sieva) were grown 2 plants to a pot and selected for treatment at the 1st true leaf stage. Test solutions were sprayed onto the foliage by an automated electro-static plant sprayer equipped with an atomizing spray nozzle. The plants were dried in the sprayer fume hood and then removed from the sprayer. Each pot was placed into perforated plastic bags with a zip closure. Ten to 11 armyworm larvae were placed into the bag and the bags zipped closed. Test plants were maintained in a growth room at 25° C. and 20-40% relative humidity for 4 days, avoiding direct exposure to fluorescent light (24 hour photoperiod) to prevent trapping of heat inside the bags. Mortality and reduced feeding were assessed 4 days after treatment, compared to untreated control plants.

[5] = tested on: yellow fever mosquito (Aedes aegypti); assay: whole plant or invertebrate; conditions: 48 h, larval mortality after 2 days, in comparison with untreated controls
Protocol: For evaluating control of yellow fever mosquito (Aedes aegypti) the test unit consisted of 96-well-microtiter plates containing 200 μl of tap water per well and 5-15 freshly hatched A. aegypti larvae. The compounds or mixtures were formulated using a solution containing 75% water and 25% DMSO. Different concentrations of formulated compounds or mixtures were sprayed onto the insect diet at 2.5 μl, using a custom built micro atomizer, at two replications. After application, microtiter plates were incubated at 28±1° C., 80±5% RH for 2 days. Larval mortality was then visually assessed.

[6] = tested on: Mediterranean fruitfly (Ceratitis capitata); assay: Mediterranean fruitfly control, microtiter plates with insect diet and eggs; conditions: 120 h, egg and larval mortality after 5 days, in comparison with untreated controls
Protocol: as §1, with “Mediterranean fruitfly (Ceratitis capitata)” for “boll weevil (Anthonomus grandis)”, “microtiter” for “24-well-microtiter”, “50-80 C. capitata” for “20-30 A. grandis”, “5” for “20”, “28±1°” for “23±1°”, “80±5%” for “50±5%”

## C#Cc1ccc(CC(C#N)(C(N)=S)c2ccccc2)cc1 (centres unmarked) [II-1, 2-cyano-3-(4-ethynylphenyl)-2-phenylpropanethioamide]
[1]
  mortality at 500 ppm: ≥ 75%
[2]
  mortality at 2500 ppm: ≥ 75%
[3]
  mortality at 500 ppm: ≥ 75%

## N#CC(Cc1ccc(C(F)(F)F)cc1)(C(N)=O)c1ccc(F)cc1 (centres unmarked) [II-2]
[4]
  mortality: at least 75%

## C#Cc1ccc(CC(C#N)(C(=S)NC)c2ccc(F)cc2)cc1 (centres unmarked) [III-1, 2-cyano-3-(4-ethynylphenyl)-2-(4-fluorophenyl)-N-methyl-propanethioamide]
[2]
  mortality at 2500 ppm: ≥ 75%
[5]
  mortality at 2500 ppm: ≥ 75%

## C#Cc1ccc(CC(C#N)(C(=O)NC)c2ccc(F)cc2)cc1 (centres unmarked) [III-4, 2-cyano-3-(4-ethynylphenyl)-2-(4-fluorophenyl)-N-methyl-propanamide]
[6]
  mortality at 2500 ppm: ≥ 75%
[2]
  mortality at 2500 ppm: ≥ 75%
